What was measured:
Format in all cases: biochemical
TACE = TACE (Homo sapiens, UniProt P78536); assay: Recombinant TNFα converting enzyme (TACE) activity, fluorescent quenched substrate; details: for MMP-1/TACE IC50 selectivity ratio: ratio of MMP-1 and TACE IC50 values
Source text: Method for the Evaluation of Recombinant TNFα Converting Enzyme Activity.
Preparation of Recombinant TACE:
A DNA fragment coding for the signal sequence, prodomain and catalytic domain of TACE (amino acids […]), was amplified by polymerase chain reaction using a human lung cDNA library as a template. The amplified fragment was cloned into pFastBac vector. The DNA sequence of the insert was confirmed for both the strands. A bacmid prepared using pFastBac in E. coli DH10Bac was transfected into SF9 insect cells. The virus particles were amplified to P1, P2, P3 stages. The P3 virus was infected into both Sf9 and High Five insect cells and grown at 27° C. for 48 hours. The medium was collected and used for assays and further purification.
Preparation of Fluorescent Quenched Substrate:
A model peptidic TNF-α substrate (LY-LeucineAlanineGlutamineAlanineValine-ArginineSerine-SerineLysine(CMTR)-Arginine (LY=Lucifer Yellow; CMTR=5-carboxytetramethyl Rhodamine)) was prepared and the concentration estimated by absorbance at 560 nm (E560, 60,000 M-1CM-1) according to the method of Geoghegan, K F, “Improved method for converting an unmodified peptide to an energy-transfer substrate for a proteinase.” Bioconjugate Chem. 7, 385-391 (1995). This peptide encompasses the cleavage cite on pro-TNF which is cleaved in vivo by TACE.
The reaction, carried out in a 96 well plate (Dynatech), was comprised of 70 μl of buffer solution (25 mM Hepes-HCl, pH 7.5, plus 20 uM ZnCl2), 10 μl of 100 μM fluorescent quenched substrate, 10 μl of a DMSO (5%) solution of test compound, and an amount of r-TACE enzyme which will cause 50% cleavage in 60 minutes—in a total volume of 100 μl. The specificity of the enzyme cleavage at the amide bond between alanine and valine was verified by HPLC and mass spectrometry. Initial rates of cleavage were monitored by measuring the rate of increase in fluorescence at 530 nm (excitation at 409 nm) over 30 minutes. The experiment was controlled as follows: 1) for background fluorescence of substrate; 2) for fluorescence of fully cleaved substrate; 3) for fluorescence quenching or augmentation from solutions containing test compound.
The rates from the non-test compound containing “control” reactions were averaged to establish the 100% value. The rate of reaction in the presence of test compound was compared to that in the absence of compound, and tabulated as “percent of non-test compound containing control. The results were plotted as “% of control” vs. the log of compound concentration and a half-maximal point or IC50 value determined. The IC50 for the above assay is a measure of the inhibition of the TNF-α proteolytic activity of TACE. Blockage of binding of TNF-α to TACE as used herein is as described in U.S. Pat. No. 5,830,742, issued Nov. 3, 1998.

MMP-13 = MMP-13 (Homo sapiens, UniProt P45452); assay: Inhibition of MMP-13, fluorescence assay
Procedure: Human recombinant MMP-13 is activated with 2 mM APMA (p-aminophenyl mercuric acetate) for 1.5 hours, at 37° C. and is diluted to […] in assay buffer (50 mM Tris, pH 7.5, 200 mM sodium chloride, 5 mM calcium chloride, 20 μM zinc chloride, 0.02% brij). Twenty-five microliters of diluted enzyme is added per well of a 96 well microfluor plate. The enzyme is then diluted in a 1:4 ratio in the assay by the addition of inhibitor and substrate to give a final concentration in the assay of […].
10 mM stock solutions of inhibitors are made up in dimethyl sulfoxide and then diluted in assay buffer as per the inhibitor dilution scheme for inhibition of human collagenase (MMP-1): Twenty-five microliters of each concentration is added in triplicate to the microfluor plate. The final concentrations in the assay are 30 μM, 3 μM, 0.3 μM, and 0.03 μM.
Substrate (Dnp-Pro-Cha-Gly-Cys(Me)-His-Ala-Lys(NMA)—NH2) is prepared as for inhibition of human collagenase (MMP-1) and […] is added to each well to give a final assay concentration of 10 μM. Fluorescence readings (360 nm excitation; 450 emission) are taken at time 0 and every 5 minutes for 1 hour.
Positive controls consist of enzyme and substrate with no inhibitor and blanks consist of substrate only.
IC50's are determined as per inhibition of human collagenase (MMP-1). If IC50's are reported to be less than 0.03 μM, inhibitors are then assayed at final concentrations of 0.3 μM, 0.03 μM, 0.003 μM and 0.0003 μM.

MMP-1 = target: T1, MMP-1 (Homo sapiens, UniProt P03956); assay: Inhibition of Human Collagenase (MMP-1), fluorescence assay
T1 sequence (P03956 100-469): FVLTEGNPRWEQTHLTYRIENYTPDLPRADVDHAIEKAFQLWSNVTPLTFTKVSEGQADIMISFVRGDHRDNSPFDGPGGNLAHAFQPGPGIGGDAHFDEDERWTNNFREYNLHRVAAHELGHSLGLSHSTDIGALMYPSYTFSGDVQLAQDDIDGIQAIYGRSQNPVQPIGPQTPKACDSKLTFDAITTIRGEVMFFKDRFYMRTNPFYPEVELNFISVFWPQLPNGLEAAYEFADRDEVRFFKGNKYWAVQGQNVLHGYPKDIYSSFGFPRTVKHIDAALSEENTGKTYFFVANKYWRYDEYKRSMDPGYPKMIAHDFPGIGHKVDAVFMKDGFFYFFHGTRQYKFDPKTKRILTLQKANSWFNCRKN
Procedure: Inhibition of Human Collagenase (MMP-1)
Human recombinant collagenase is activated with trypsin using the following ratio: 10 μg trypsin per 100 μg of collagenase. The trypsin and collagenase are incubated at room temperature for 10 minutes then a five fold excess (50 μg/10 μg trypsin) of soybean trypsin inhibitor is added.
10 mM stock solutions of inhibitors are made up in dimethyl sulfoxide and then diluted using the following Scheme:
Twenty-five microliters of each concentration is then added in triplicate to appropriate wells of a 96 well microfluor plate. The final concentration of inhibitor will be a 1:4 dilution after addition of enzyme and substrate. Positive controls (enzyme, no inhibitor) are set up in wells D1-D6 and blanks (no enzyme, no inhibitors) are set in wells D7-D12.
Collagenase is diluted to 400 ng/ml and 25 μl is then added to appropriate wells of the microfluor plate. Final concentration of collagenase in the assay is 100 ng/ml.
Substrate (DNP-Pro-Cha-Gly-Cys(Me)-His-Ala-Lys(NMA)-NH2) is made as a 5 mM stock in dimethyl sulfoxide and then diluted to […] in assay buffer. The assay is initiated by the addition of 50 μl substrate per well of the microfluor plate to give a final concentration of […] Fluorescence readings (360 nm excitation, 460 nm emission) were taken at time 0 and then at 20 minute intervals. The assay is conducted at room temperature with a typical assay time of 3 hours.
Fluorescence vs time is then plotted for both the blank and collagenase containing samples (data from triplicate determinations is averaged). […] The zero time is used as a blank for each compound at each concentration and these values are subtracted from the 120 minute data. Data is plotted as inhibitor concentration vs % control (inhibitor fluorescence divided by fluorescence of collagenase alone×100). IC50's are determined from the concentration of inhibitor that gives a signal that is 50% of the control.
If IC50's are reported to be <0.03 μM then the inhibitors are assayed at concentrations of 0.3 μM, 0.03 μM, […].

TACE, sequence (P78536 223-474): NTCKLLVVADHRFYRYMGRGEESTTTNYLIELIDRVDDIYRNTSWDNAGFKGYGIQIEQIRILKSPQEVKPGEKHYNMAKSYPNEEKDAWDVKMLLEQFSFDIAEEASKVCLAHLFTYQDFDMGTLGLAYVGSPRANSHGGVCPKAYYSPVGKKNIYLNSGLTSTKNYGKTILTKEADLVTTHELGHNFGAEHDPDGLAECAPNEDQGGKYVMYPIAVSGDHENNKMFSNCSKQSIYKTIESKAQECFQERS

Structure (SMILES)	IC50 (TACE)	MMP-1/TACE IC50 selectivity ratio (TACE)	IC50 (MMP-13)	IC50 (MMP-1)
CC(=O)N1CCN(S(=O)(=O)c2ccc(OCc3ccccc3C)cc2)[C@@H](C(=O)NO)[C@@H]1C	6.2 nM	258	3 nM	1600 nM
CC1(C)[C@H](C(=O)NO)N(S(=O)(=O)c2ccc(OCc3ccc(F)cc3)cc2)CC[S+]1[O-] (some centres unmarked)	7.4 nM	46.6	5 nM	345 nM
Cc1ccccc1COc1ccc(S(=O)(=O)N2CCN[C@@H](C)[C@@H]2C(=O)NO)cc1	19 nM	558	18 nM	10600 nM
C[C@@H]1NCCN(S(=O)(=O)c2ccc(OCc3ccccc3)cc2)[C@H]1C(=O)NO	25 nM	299	8 nM	7480 nM
CC1(C)[C@H](C(=O)NO)N(S(=O)(=O)c2ccc(OCc3ccc(F)cc3)cc2)CCS1(=O)=O	7.2 nM	42.4	1.4 nM	305 nM
Cc1ccc(C)c(COc2ccc(S(=O)(=O)N3C[C@H](C)O[C@@H](C)[C@@H]3C(=O)NO)cc2)c1	10 nM	350	88 nM	3500 nM
C[C@@H]1O[C@@H](C)CN(S(=O)(=O)c2ccc(OCc3ccncc3)cc2)[C@H]1C(=O)NO	12 nM	167	6 nM	2000 nM
C[C@@H]1O[C@@H](CO)CN(S(=O)(=O)c2ccc(OCc3ccc(F)cc3)cc2)[C@H]1C(=O)NO	4.5 nM	311	1 nM	1400 nM
